Laboratory results taken from patent US9443060B2, “Method and system to provide personalized pharmaceutical compositions and dosages” (Volant Holdings GMBH, priority 2009, dated 2016).

Tests used:
[1] = test system: peripheral insulin exposure (PIE); assay: Glucose supply and insulin demand model: effect on peripheral insulin exposure; format: in vivo, human; parameters: PIE (24 h insulin exposure): unit not given here; conditions: for PIE: adjustment factor = increase in peripheral insulin exposure at the therapeutic dose of Table 1, T2D
Experimental: (§1) Therapeutic targets of the glucose supply (CE, 1+2; HGU, 3; GNG, 4; IR, 5) and insulin demand (PGU, 6; PIE, 7) model are presented in FIG. 1. To identify quantitative differences between antidiabetic agents on CE, HGU, GNG, IR, PGU, and PIE, multidatabase searches (Cochrane Central Register of Controlled Trials and Cochrane Register of Systematic Reviews, Embase, OVID Healthstar, OVID Journals, and PubMed) were conducted cross-referencing title and keywords for all selected antidiabetic therapies and their respective targets.
(§2) Alpha-glucosidase, biguanide, and thiazolidinedione (TZD) studies with long-term, pre-post design at maximal therapeutic doses were identified to simulate chronic administration. To maintain consistency with cardiovascular trials and accommodate known influences of hyperglycemia and hyperinsulinemia on the respective targets,^13-16 studies including patients with HbA1c in the range of 6-8% and body mass index (BMI)≧30 kg/m^2 were preferentially selected. In the event multiple studies were available to identify the effect of an agent on a therapeutic target, the mean percent change was used. Conversely, if there was evidence that an agent would elicit a response on a given target but no mathematical representation of the difference was provided, conservative estimates consistent with the scale of other agents and the degree of glucose regulation were instituted to best represent the expected effect. Individual agents were then characterized for the 24 h percent change from baseline for CE, HGU, GNG, IR, PGU, and PIE. Carbohydrate exposure was determined as the combined effect of caloric intake and intestinal carbohydrate absorption. Hepatic glucose uptake was defined as the reported value obtained immediately following oral glucose loading. Because GNG is known to be enhanced in the fasting state and persistent throughout the prandial phase,^17,18 effect was determined during the fasting state and considered equivalent throughout the prandial phase. For studies evaluating fasting glucose and insulin concentrations, an index of IR was determined by homeostasis model assessment of insulin resistance (HOM-AIR) using the following formula: Insulin (mU/liter)×Glucose (mmol)/22.5.^19 To account for known differences in secretory and uptake dynamics during the fasting and prandial phases, studies identifying the impact of therapies during the fasting state (or simulated hyperinsulinemic euglycemic clamp) and prandial phase (or oral glucose load insulin clamp) were specifically identified for changes in PGU (glucose infusion rate) and PIE (insulin concentrations) according to Equation (1): […]
(§3) For sulfonylurea and insulin-based therapies, insulin concentration time profiles were obtained and superimposed on the baseline 24 h insulin concentration time profile of T2D patients (FIG. 2) to calculate the increase in PIE (trapezoidal rule).^20 Calculated increases in incremental and cumulative insulin exposure were correlated to known insulin dose-response effects on HGU, GNG, and PGU (FIG. 3),^18,21 according to the equation y=mx+b. Twenty-four-hour increases in HGU, PGU, and PIE and decreases in GNG were compared to baseline values and percent change calculated.
(§4) With alpha-glucosidase, biguanide, TZD, secretagogue, and insulin therapies characterized for their respective impacts on CE, HGU, GNG, IR, PIE, and PGU, identification of their effect on the glucose supply (decrease in CE, increase in HGU, decrease in GNG, decrease in IR) and insulin demand (increase in PIE, increase in PGU) dynamic was assessed according to Equation (2), which provides the SD ratio according to the invention: […]
Twenty-four-hour steady state insulin concentration time curves were superimposed on the baseline secretion profile of the standard T2D patient.

[2] = test system: hepatic gluconeogenesis (GNG); assay: Glucose supply and insulin demand model: effect on hepatic gluconeogenesis; format: in vivo, human; conditions: for GNG inhibition: adjustment factor = decrease in hepatic gluconeogenesis at the therapeutic dose of Table 1, T2D
Experimental: as §1, §2, §3, §4

[3] = test system: carbohydrate exposure (CE); assay: Glucose supply and insulin demand model: effect on carbohydrate exposure; format: in vivo, human; parameters: scale not given here; conditions: for CE inhibition: adjustment factor = decrease in carbohydrate exposure at the therapeutic dose of Table 1, T2D
Experimental: as §1, §2, §3, §4

[4] = test system: peripheral glucose uptake (PGU); assay: Glucose supply and insulin demand model: effect on peripheral glucose uptake; format: in vivo, human; conditions: for PGU: adjustment factor = increase in peripheral glucose uptake at the therapeutic dose of Table 1, T2D
Experimental: as §1, §2, §3, §4

[5] = test system: hepatic glucose uptake (HGU); assay: Glucose supply and insulin demand model: effect on hepatic glucose uptake; format: in vivo, human; conditions: for HGU uptake: adjustment factor = increase in hepatic glucose uptake at the therapeutic dose of Table 1, T2D
Experimental: as §1, §2, §3, §4

insulin resistance (IR) = assay: Glucose supply and insulin demand model: effect on insulin resistance; format: in vivo, human; conditions: for IR reduction: adjustment factor = decrease in insulin resistance at the therapeutic dose of Table 1, T2D
Experimental: as §1, §2, §3, §4

[6] = test system: hepatic gluconeogenesis (GNG); conditions: cited from earlier work
[7] = Insulin Glargine 1.0 U/Kg daily
[8] = Metformin 2000 mg, Glyburide 10 mg, Pioglitazone 45 mg, Insulin Glargine 0.5 U/kg daily, pH encapsulated glucose 3.0 grams/day
[9] = insulin glargine 0.5 U/kg, from insulin dose-response relationship

Row | Compound | PIE [1] | GNG inhibition [2] | CE inhibition [3] | PGU [4] | HGU uptake [5] | IR reduction (insulin resistance (IR)) | further results
1 | Insulin Aspart Protamine | 0.28 | 0.10 | 0.00 | 0.40 | 0.23 | 0.00 | 
2 | Insulin Glargine | 0.30 | 0.10 | 0.00 | 0.42 | 0.24 | 0.00 | Score PIE [1, 7]: 0.60; Score PIE [1, 8]: 0.30; PIE (24 h insulin exposure) ([1]; insulin glargine 0.5 U/kg superimposed on standard T2D profile, baseline 5765): 7495; increase in PIE versus baseline ([1]; insulin glargine 0.5 U/kg, 24 h profile superimposed on standard T2D profile, trapezoidal rule): 30%; Score HGI [2, 7]: 0.20; Score HGI [2, 8]: 0.10; decrease in GNG [2, 9]: 10%; Score CE [3, 7]: 0.00; Score CE [3, 8]: 0.00; Score PGU [4, 7]: 0.84; Score PGU [4, 8]: 0.42; increase in PGU [4, 9]: 42%; Score HGU [5, 7]: 0.48; Score HGU [5, 8]: 0.24; increase in HGU [5, 9]: 24%; Score IR (insulin resistance (IR); [7]): 0.00; Score IR (insulin resistance (IR); [8]): 0.00
3 | Insulin Ultralente | 0.24 | 0.08 | 0.00 | 0.38 | 0.17 | 0.00 | 
4 | CCc1ccc(CCOc2ccc(CC3SC(=O)NC3=O)cc2)nc1 (stereo not drawn) [Pioglitazone] | −0.10 | 0.21 |  | 0.59 | 0.40 | 0.35 | Score PIE [1, 8]: −0.10; Score HGI [2, 8]: 0.21; Score CE [3, 8]: 0.00; Score PGU [4, 8]: 0.59; Score HGU [5, 8]: 0.40; Score IR (insulin resistance (IR); [8]): 0.35
5 | Cc1cnc(C(=O)NCCc2ccc(S(=O)(=O)NC(=O)NC3CCCCC3)cc2)cn1 [Glipizide] |  | 0.08 |  |  |  | 0.00 | 
6 | CCCNC(=O)NS(=O)(=O)c1ccc(Cl)cc1 [Chlorpropamide] | 0.21 | 0.07 |  | 0.36 | 0.14 | 0.00 | 
7 | C[C@H]1O[C@H](O[C@H]2[C@H](O)[C@@H](O)[C@@H](O[C@H]3[C@H](O)[C@@H](O)C(O)O[C@@H]3CO)O[C@@H]2CO)[C@H](O)[C@@H](O)[C@@H]1N[C@H]1C=C(CO)[C@@H](O)[C@H](O)[C@H]1O (stereo partly drawn) [Acarbose] | 0.05 | 0.05 |  | 0.25 | 0.15 | 0.15 | 
8 | CCCCNC(=O)NS(=O)(=O)c1ccc(C)cc1 [Tolbutamide] | 0.21 | 0.07 |  | 0.36 | 0.14 | 0.00 | 
9 | CCOc1cc(CC(=O)N[C@@H](CC(C)C)c2ccccc2N2CCCCC2)ccc1C(=O)O [Repaglinide] | 0.20 | 0.07 |  | 0.31 | 0.16 | 0.00 | 
10 | Insulin Isophane | 0.28 | 0.10 | 0.00 | 0.40 | 0.23 | 0.00 | 
11 | OCCN1C[C@H](O)[C@@H](O)[C@H](O)[C@H]1CO [Miglitol] | 0.05 | 0.05 |  | 0.25 | 0.15 | 0.15 | hepatic glucose output ([6]; Schnack, miglitol 300 mg/day, eight weeks, euglycemic clamp, poorly controlled T2D, placebo 0.35±0.17, not significant): 0.37±0.15 mg/kg^−1/min^−1; change in hepatic glucose production ([6]; Sels, miglitol 200 mg at bedtime for 1 week, T2D): not associated with a change in hepatic glucose production
12 | Insulin Lente | 0.28 | 0.10 | 0.00 | 0.40 | 0.23 | 0.00 | 
13 | Insulin Lispro Protamine | 0.28 | 0.10 | 0.00 | 0.40 | 0.23 | 0.00 | 
14 | Insulin Regular | 0.33 | 0.11 | 0.00 | 0.64 | 0.21 | 0.00 | 
15 | CCC1=C(C)CN(C(=O)NCCc2ccc(S(=O)(=O)NC(=O)N[C@H]3CC[C@H](C)CC3)cc2)C1=O [Glimepiride] | 0.24 | 0.08 |  | 0.39 | 0.18 | 0.00 | 
16 | Insulin Aspart | 0.42 | 0.14 | 0.00 | 0.80 | 0.23 | 0.00 | 
17 | Cc1c(C)c2c(c(C)c1O)CCC(C)(COc1ccc(CC3SC(=O)NC3=O)cc1)O2 (stereo not drawn) [Troglitazone] | −0.10 | 0.22 |  | 0.67 | 0.40 | 0.35 | 
18 | CN(CCOc1ccc(CC2SC(=O)NC2=O)cc1)c1ccccn1 (stereo not drawn) [Rosiglitazone] | −0.10 | 0.23 |  |  |  | 0.39 | 
19 | Cc1ccc(S(=O)(=O)NC(=O)NN2CCCCCC2)cc1 [Tolazamide] | 0.21 | 0.07 |  | 0.36 | 0.14 | 0.00 | 
20 | COc1ccc(Cl)cc1C(=O)NCCc1ccc(S(=O)(=O)NC(=O)NC2CCCCC2)cc1 [Glyburide] | 0.21 | 0.07 |  | 0.36 | 0.14 | 0.00 | Score PIE [1, 8]: 0.21; Score HGI [2, 8]: 0.07; Score CE [3, 8]: 0.00; Score PGU [4, 8]: 0.36; Score HGU [5, 8]: 0.14; Score IR (insulin resistance (IR); [8]): 0.00
21 | CC(C)[C@H]1CC[C@H](C(=O)N[C@H](Cc2ccccc2)C(=O)O)CC1 [Nateglinide] | 0.34 | 0.11 |  | 0.60 | 0.21 | 0.00 | 
22 | CC(=O)c1ccc(S(=O)(=O)NC(=O)NC2CCCCC2)cc1 [Acetohexamide] | 0.21 | 0.07 |  | 0.36 | 0.14 | 0.00 | 
23 | Insulin Lispro | 0.42 | 0.14 | 0.00 | 0.80 | 0.23 | 0.00 | 
